# According to patent publication US20240199692A1 (priority 2019, published 2024):
# *1 amine or outer side, *2 acyl side, *3 side chain or, on linkers, in order; H or OH if unused. Where a SMILES comes first, the peptide text is derived from it. Bridges are numbered along the chain shown (N, C = ends). Side-chain parts run from the residue outwards. [ ]: non-standard residue; d: D form. The star is where a group is joined. Phenylsulfonyl(4-anisamido) = COc1ccc(C(=O)Nc2ccc(S(=O)(=O)*)cc2)cc1; Benzoyl(4-O-C6H4-4-CONHMe) = CNC(=O)c1ccc(Oc2ccc(C(=O)*)cc2)cc1; Benzoyl(4-OPh(4-CONH2)) = NC(=O)c1ccc(Oc2ccc(C(=O)*)cc2)cc1; Benzenesulfonyl(4-OPh) = O=S(=O)(c1ccc(Oc2ccccc2)cc1)*; X3 = O=C(Nc1ccc(S(=O)(=O)*)cc1)c1ccc(OC2CC2)cc1; X2 = CCOc1ccc(C(=O)Nc2ccc(S(=O)(=O)*)cc2)cc1; Benzoyl(4-OPh) = O=C(c1ccc(Oc2ccccc2)cc1)*; d(γGlu) = O=C(O)[C@@H](CCC(=O)[*:2])N[*:1]; C16 diacid = O=C(O)CCCCCCCCCCCCCCC(=O)*; X13 = Cc1ccc(C#Cc2ccc(S(=O)(=O)*)s2)cc1; NMeF = CN[C@@H](Cc1ccccc1)C(=O)O; NMeGABA = CN(CCCC(=O)[*:2])[*:1]; NMeI = CC[C@H](C)[C@H](NC)C(=O)O; NMeE = CN[C@@H](CCC(=O)O)C(=O)O; NMeK = CN[C@@H](CCCCN)C(=O)O; NMeM = CN[C@@H](CCSC)C(=O)O; NMeV = CN[C@H](C(=O)O)C(C)C; β3hP = O=C(O)C[C@@H]1CCCN1; NMeA = CN[C@@H](C)C(=O)O; Orn = NCCC[C@H](N)C(=O)O; Aze = O=C(O)[C@@H]1CCN1; Dab = NCC[C@H](N)C(=O)O; X18 = NC(=O)[C@H](N)CN*; AEEA = NCCOCCOCC(=O)O; Ava = NCCCCC(=O)O; GABA = NCCCC(=O)O; βAla = NCCC(=O)O
# Target: T1, MMP2 (Homo sapiens, UniProt P08253)
# T1 sequence (P08253 110-660): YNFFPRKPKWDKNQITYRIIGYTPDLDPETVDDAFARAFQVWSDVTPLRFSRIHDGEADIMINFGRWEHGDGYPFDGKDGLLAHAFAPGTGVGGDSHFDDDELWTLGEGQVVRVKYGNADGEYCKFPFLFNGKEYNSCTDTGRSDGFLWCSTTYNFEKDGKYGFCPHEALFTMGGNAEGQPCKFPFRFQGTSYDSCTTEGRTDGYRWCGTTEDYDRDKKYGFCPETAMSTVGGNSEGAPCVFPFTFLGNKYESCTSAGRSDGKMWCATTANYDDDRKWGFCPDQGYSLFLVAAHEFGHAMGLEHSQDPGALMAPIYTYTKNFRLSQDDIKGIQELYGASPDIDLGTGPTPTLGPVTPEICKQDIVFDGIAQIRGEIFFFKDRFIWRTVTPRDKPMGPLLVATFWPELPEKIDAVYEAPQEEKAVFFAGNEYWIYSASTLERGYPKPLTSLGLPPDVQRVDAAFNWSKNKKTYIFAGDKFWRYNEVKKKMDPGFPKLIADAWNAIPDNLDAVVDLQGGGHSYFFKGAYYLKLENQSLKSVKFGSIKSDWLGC
# Assay: Inhibitory effects on human MMP2 (Method 1), enzyme assay with MOCAc-Pro-Leu-Gly-Leu-A2pr(Dnp)-Ala-Arg-NH2 substrate, 96-well
# Assay type: biochemical
# Conditions: Test Example No. 1-1 (Method 1, 96-well microplate); read-out: Human MMP2, IC50
# Method: In a reaction solution [50 mmol/L Tris-HCl (pH 7.5), 150 mmol/L NaCl, 10 mmol/L CaCl2, 0.05% Brij L23], 100 μg/mL human recombinant MMP2 enzyme and 1 mmol/L 4-Aminophenylmercuric acetate were mixed together, and reacted at 37° C. for 60 minutes. The human MMP2 activated through the reaction was poured into a 96-well microplate to reach a final concentration of 0.7 or 7 ng/mL.
row,Compound,IC50
1,CC[C@H](C)[C@@H](C(=O)N1CCC[C@H]1CC(N)=O)N(C)C(=O)[C@H](CC(C)C)NC(=O)[C@H](CCN)NC(=O)CC[C@@H](NS(=O)(=O)c1ccc(NC(=O)c2ccc(OC)cc2)cc1)C(=O)O [Compound 695] ({Phenylsulfonyl(4-anisamido)-d(γGlu)}-[Dab]L[NMeI][β3hP]-NH2; N-terminus assumed),530 pM
2,CC(C)C[C@H](NC(=O)[C@H](CCN)NC(=O)[C@H](CC(=O)O)NC(=O)[C@@H](NC(=O)CCCNC(=O)c1ccc(Oc2ccccc2)cc1)C(C)C)C(=O)N(C)[C@@H](CCC(=O)O)C(=O)N1CCC[C@H]1CC(N)=O [Compound 143] ({Benzoyl(4-OPh)-GABA}-VD[Dab]L[NMeE][β3hP]-NH2; N-terminus assumed),2600 pM
3,CC(C)C[C@H](NC(=O)[C@H](CCN)NC(=O)[C@H](CC(=O)O)NC(=O)[C@H](CCC(N)=O)NC(=O)[C@@H](N)CCCNC(=O)c1ccc(Oc2ccc(C(N)=O)cc2)cc1)C(=O)N(C)[C@H](C(=O)NC[C@@H](N)C(N)=O)C(C)C [Compound 536] (H-[Orn](Benzoyl(4-OPh(4-CONH2)))QD[Dab]L[NMeV]-X18),350 pM
4,CC(C)C[C@H](NC(=O)[C@H](CCN)NC(=O)CC[C@@H](NS(=O)(=O)c1ccc(NC(=O)c2ccc(OC3CC3)cc2)cc1)C(=O)O)C(=O)N(C)[C@@H](CCC(=O)O)C(=O)N1CCC[C@H]1CC(N)=O [Compound 703] ({X3-d(γGlu)}-[Dab]L[NMeE][β3hP]-NH2; N-terminus assumed),330 pM
5,CC[C@H](C)[C@@H](C(=O)N[C@@H](CC(=O)O)C(=O)N[C@@H](C)C(=O)N[C@@H](CC(C)C)C(=O)N(C)[C@H](C(=O)N1CCC[C@H]1C(N)=O)[C@@H](C)CC)N(C)C(=O)CCCNC(=O)c1ccc(Oc2ccccc2)cc1 [Compound 121] ({Benzoyl(4-OPh)-GABA}-[NMeI]DAL[NMeI]P-NH2; N-terminus assumed),190 pM
6,CC(C)C[C@H](NC(=O)[C@H](CCN)NC(=O)[C@H](CC(=O)O)NC(=O)[C@H](CC(N)=O)NC(=O)CCCNC(=O)c1ccc(Oc2ccccc2)cc1)C(=O)N(C)[C@@H](CCC(=O)O)C(=O)N1CCC[C@H]1C(N)=O [Compound 109] ({Benzoyl(4-OPh)-GABA}-ND[Dab]L[NMeE]P-NH2; N-terminus assumed),700 pM
7,CCOc1ccc(C(=O)Nc2ccc(S(=O)(=O)N[C@H](CCC(=O)N[C@@H](CCN)C(=O)N[C@@H](CC(C)C)C(=O)N(C)[C@@H](CCC(=O)O)C(=O)N3CCC[C@H]3CC(N)=O)C(=O)O)cc2)cc1 [Compound 702] ({X2-d(γGlu)}-[Dab]L[NMeE][β3hP]-NH2; N-terminus assumed),250 pM
8,CC[C@H](C)[C@@H](C(=O)N1CCC[C@H]1CC(N)=O)N(C)C(=O)[C@H](CC(C)C)NC(=O)[C@H](CCN)NC(=O)[C@H](CC(=O)O)NC(=O)[C@H](CCCCN)NC(=O)CCCCNC(=O)c1ccc(Oc2ccc(C(=O)NC)cc2)cc1 [Compound 185] ({Benzoyl(4-O-C6H4-4-CONHMe)-Ava}-KD[Dab]L[NMeI][β3hP]-NH2; N-terminus assumed),1000 pM
9,CC(C)C[C@H](NC(=O)[C@H](CCN)NC(=O)[C@H](CC(=O)O)NC(=O)[C@H](CC(N)=O)NC(=O)CCCNC(=O)c1ccc(Oc2ccccc2)cc1)C(=O)N(C)[C@@H](CCC(=O)O)C(=O)N1CCC[C@H]1CC(N)=O [Compound 108] ({Benzoyl(4-OPh)-GABA}-ND[Dab]L[NMeE][β3hP]-NH2),190 pM
10,CC[C@H](C)[C@@H](C(=O)N1CCC[C@H]1C(N)=O)N(C)C(=O)[C@H](CC(C)C)NC(=O)[C@H](C)NC(=O)[C@H](CC(=O)O)NC(=O)[C@H](CCCCN)N(C)C(=O)CCCNC(=O)c1ccc(Oc2ccccc2)cc1 [Compound 127] ({Benzoyl(4-OPh)-GABA}-[NMeK]DAL[NMeI]P-NH2; N-terminus assumed),240 pM
11,CC[C@H](C)[C@@H](C(=O)N1CCC[C@H]1CC(N)=O)N(C)C(=O)[C@H](CC(C)C)NC(=O)[C@H](CCN)NC(=O)[C@H](CC(=O)O)NC(=O)[C@@H](NC(=O)CCCNC(=O)c1ccc(Oc2ccccc2)cc1)C(C)C [Compound 146] ({Benzoyl(4-OPh)-GABA}-VD[Dab]L[NMeI][β3hP]-NH2; N-terminus assumed),1700 pM
12,"CSCC[C@@H](C(=O)N1CCC[C@H]1C(N)=O)N(C)C(=O)[C@H](CC(C)C)NC(=O)[C@H](C)NC(=O)[C@H](CC(=O)O)NC(=O)[C@H](CC(N)=O)NC(=O)CCNS(=O)(=O)c1ccc(C#Cc2ccc(C)cc2)s1 [Compound 587, N-{5-[(4-methylphenyl)ethynyl]thiophene-2-sulfonyl}-β-alanyl-L-asparaginyl-L-α-aspartyl-L-alanyl-L-leucyl-N-methyl-L-methionyl-L-prolinamide] ({X13-βAla}-NDAL[NMeM]P-NH2)",190 pM
13,CC[C@H](C)[C@@H](C(=O)N1CCC[C@H]1C(N)=O)N(C)C(=O)[C@H](CC(C)C)NC(=O)[C@H](C)NC(=O)[C@H](CC(=O)O)NC(=O)[C@H](Cc1ccccc1)N(C)C(=O)CCCNC(=O)c1ccc(Oc2ccccc2)cc1 [Compound 124] ({Benzoyl(4-OPh)-GABA}-[NMeF]DAL[NMeI]P-NH2; N-terminus assumed),310 pM
14,CC[C@H](C)[C@@H](C(=O)N1CCC[C@H]1CC(N)=O)N(C)C(=O)[C@H](CC(C)C)NC(=O)[C@H](CCN)NC(=O)[C@H](CC(=O)O)NC(=O)[C@@H]1CCN1C(=O)CCCNC(=O)c1ccc(Oc2ccccc2)cc1 [Compound 133] ({Benzoyl(4-OPh)-GABA}-[Aze]D[Dab]L[NMeI][β3hP]-NH2; N-terminus assumed),880 pM
15,CC[C@H](C)[C@@H](C(=O)N1CCC[C@H]1C(N)=O)N(C)C(=O)[C@H](CC(C)C)NC(=O)[C@H](C)NC(=O)[C@H](CC(=O)O)NC(=O)[C@H](C)N(C)C(=O)CCCN(C)C(=O)c1ccc(Oc2ccccc2)cc1 [Compound 100] ({Benzoyl(4-OPh)}-[NMeGABA][NMeA]DAL[NMeI]P-NH2; N-terminus assumed),1200 pM

# Same assay, conditions: Test Example No. 1-1 (Method 1, 96-well); read-out: Human MMP2, IC50
row,IC50,Compound
1,1600 pM,CC[C@H](C)[C@@H](C(=O)N1CCC[C@H]1CC(=O)O)N(C)C(=O)[C@@H]1CCCCNC(=O)CNC(=O)CC[C@H](NC(=O)CCCNS(=O)(=O)c2ccc(Oc3ccccc3)cc2)C(=O)N[C@@H](CC(=O)O)C(=O)N[C@@H](C)C(=O)N1 [Compound 891] ({Benzenesulfonyl(4-OPh)-GABA}-EDAK[NMeI][β3hP]-OH; linker 1-4 via G)
2,127 pM,"CC[C@H](C)[C@@H](C(=O)N1CCC[C@H]1CC(N)=O)N(C)C(=O)[C@H](CC(C)C)NC(=O)[C@H](C)NC(=O)[C@H](CC(=O)O)NC(=O)[C@H](CCCCNC(=O)COCCOCCNC(=O)COCCOCCNC(=O)CC[C@@H](NC(=O)CCCCCCCCCCCCCCC(=O)O)C(=O)O)NC(=O)CCCNS(=O)(=O)c1ccc(Oc2ccccc2)cc1 [Compound 903, (2S,5S,32R)-2-{[(2S)-1-({(2S)-1-[{(2S,3S)-1-[(2S)-2-(2-amino-2-oxoethyl)pyrrolidin-1-yl]-3-methyl-1-oxopentan-2-yl}(methyl)amino]-4-methyl-1-oxopentan-2-yl}amino)-1-oxopropan-2-yl]carbamoyl}-4,11,20,29,34-pentaoxo-5-{4-[(4-phenoxybenzene-1-sulfonyl)amino]butanamido}-13,16,22,25-tetraoxa-3,10,19,28,33-pentaazaoctatetracontane-1,32,48-tricarboxylic acid] ({Benzenesulfonyl(4-OPh)-GABA}-K([AEEA-AEEA-d(γGlu)-C16 diacid])DAL[NMeI][β3hP]-NH2)"
